Activity calls are given as the source filed them. The rule behind the calls is not given here.
Key:
MOLM-13 [1] = assay: Induction of apoptosis in human MOLM13 cells assessed as PARP cleavage up to 10 uM after 48 hrs by immunoblot method; type: functional, cell-based
[2] = target: T1, Tyrosine-protein kinase BTK (Homo sapiens, UniProt Q06187); assay: Irreversible binding affinity to recombinant full length His-tagged human BTK expressed in baculovirus expression system assessed as modification of Cys481 residue containing fragment at 100 uM after 1 hr by LC/MS-MS method
T1 sequence (Q06187 whole entry, the tested form may be a part): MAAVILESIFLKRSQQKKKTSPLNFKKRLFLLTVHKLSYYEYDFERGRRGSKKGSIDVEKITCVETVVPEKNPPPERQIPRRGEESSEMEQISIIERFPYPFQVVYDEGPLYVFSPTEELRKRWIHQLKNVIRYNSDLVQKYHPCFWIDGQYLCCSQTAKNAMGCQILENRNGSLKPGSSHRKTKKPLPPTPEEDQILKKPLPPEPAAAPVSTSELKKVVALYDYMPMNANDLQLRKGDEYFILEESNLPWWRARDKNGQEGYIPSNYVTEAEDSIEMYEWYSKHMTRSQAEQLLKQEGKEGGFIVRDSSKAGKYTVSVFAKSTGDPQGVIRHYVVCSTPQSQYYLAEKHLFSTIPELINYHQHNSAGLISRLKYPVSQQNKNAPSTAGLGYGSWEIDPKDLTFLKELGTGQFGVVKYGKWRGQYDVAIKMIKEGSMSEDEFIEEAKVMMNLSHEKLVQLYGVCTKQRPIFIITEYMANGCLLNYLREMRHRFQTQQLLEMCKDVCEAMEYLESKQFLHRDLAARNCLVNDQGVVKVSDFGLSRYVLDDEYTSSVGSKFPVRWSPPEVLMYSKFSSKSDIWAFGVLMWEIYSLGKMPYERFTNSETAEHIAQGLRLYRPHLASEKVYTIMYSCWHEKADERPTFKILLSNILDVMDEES

Ramos [3] = assay: Induction of apoptosis in human Ramos cells assessed as caspase-3 cleavage up to 10 uM after 48 hrs by immunoblot method; type: functional, cell-based
Pfeiffer [4] = assay: Cell cycle arrest in human Pfeiffer cells assessed as accumulation at G0/G1 phase up to 10 uM after 48 hrs by propidium iodide staining-based flow cytometric method; type: functional
[5] = target: T1, Tyrosine-protein kinase BTK; assay: Inhibition of BTK autophosphorylation at Y223 in anti-IgM stimulated human Pfeiffer cells after 4 hrs by chemiluminescence assay; type: cell-based
[6] = target: Cytoplasmic tyrosine-protein kinase BMX (Homo sapiens, UniProt P51813); assay: Inhibition of recombinant full length His-tagged human BMX expressed in baculovirus expression system using poly (4:1 Glu, Tyr) as substrate preincubated for 1 hr followed by substrate addition measured after 1 hr by ADP-glo assay
Chain of Cytoplasmic tyrosine-protein kinase BMX (P51813 whole entry): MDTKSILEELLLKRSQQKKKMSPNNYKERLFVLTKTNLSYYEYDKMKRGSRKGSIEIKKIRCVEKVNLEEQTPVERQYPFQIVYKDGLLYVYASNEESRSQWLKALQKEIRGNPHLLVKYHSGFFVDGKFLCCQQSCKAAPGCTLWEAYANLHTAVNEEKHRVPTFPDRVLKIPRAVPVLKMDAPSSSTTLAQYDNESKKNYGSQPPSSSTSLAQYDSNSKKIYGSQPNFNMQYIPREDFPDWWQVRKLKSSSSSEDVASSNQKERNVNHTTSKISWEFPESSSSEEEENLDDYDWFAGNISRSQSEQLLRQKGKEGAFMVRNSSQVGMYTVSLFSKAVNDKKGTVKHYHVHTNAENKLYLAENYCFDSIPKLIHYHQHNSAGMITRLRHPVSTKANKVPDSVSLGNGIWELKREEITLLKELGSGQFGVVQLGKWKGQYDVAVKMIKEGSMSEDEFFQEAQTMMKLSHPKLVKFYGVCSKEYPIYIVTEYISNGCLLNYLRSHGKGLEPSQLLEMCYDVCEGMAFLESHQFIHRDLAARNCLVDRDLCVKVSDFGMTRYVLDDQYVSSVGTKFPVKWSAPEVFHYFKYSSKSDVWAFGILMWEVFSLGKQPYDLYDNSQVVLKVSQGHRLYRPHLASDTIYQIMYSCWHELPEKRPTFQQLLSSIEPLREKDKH

cells [7] = type: functional; conditions: Homo sapiens, CLL cell, 72 h
A549 = assay: Antiproliferative activity against human A549 cells after 72 hrs by CellTiter-Glo assay; type: functional; conditions: A549, 72 h
NB-4 = assay: Antiproliferative activity against human NB4 cells after 72 hrs by CellTiter-Glo assay; type: functional; conditions: NB-4, 72 h
HEL = assay: Antiproliferative activity against human HEL cells after 72 hrs by CellTiter-Glo assay; type: functional
[8] = target: T1, Tyrosine-protein kinase BTK; assay: Inhibition of BTK autophosphorylation at Y223 in anti-IgM stimulated human Ramos cells after 4 hrs by chemiluminescence assay; type: cell-based
[9] = target: T1, Tyrosine-protein kinase BTK; assay: Inhibition of BTK autophosphorylation at Y223 in anti-IgM stimulated human MOLM13 cells after 4 hrs by chemiluminescence assay
[10] = target: T1, Tyrosine-protein kinase BTK; assay: Irreversible inhibition of recombinant full length His-tagged human BTK expressed in baculovirus expression system using poly (4:1 Glu, Tyr) as substrate preincubated for 2 to 60 mins followed by substrate addition measured after 1 hr by ADP-glo assay
[11] = target: T1, Tyrosine-protein kinase BTK; assay: Inhibition of BTK in anti-IgM stimulated human MOLM13 cells assessed as decrease in PLCgamma2 phosphorylation at Y1217 at 100 to 1000 nM after 4 hrs by chemiluminescence assay
Ramos [12] = assay: Cell cycle arrest in human Ramos cells assessed as accumulation at G0/G1 phase up to 10 uM after 48 hrs by propidium iodide staining-based flow cytometric method; type: functional
[13] = target: T2, Tyrosine-protein kinase JAK3 (Homo sapiens, UniProt P52333); assay: Inhibition of recombinant GST-tagged human JAK3 expressed in baculovirus expression system using poly (4:1 Glu, Tyr) as substrate preincubated for 1 hr followed by substrate addition measured after 1 hr by ADP-glo assay
T2 sequence (P52333 whole entry): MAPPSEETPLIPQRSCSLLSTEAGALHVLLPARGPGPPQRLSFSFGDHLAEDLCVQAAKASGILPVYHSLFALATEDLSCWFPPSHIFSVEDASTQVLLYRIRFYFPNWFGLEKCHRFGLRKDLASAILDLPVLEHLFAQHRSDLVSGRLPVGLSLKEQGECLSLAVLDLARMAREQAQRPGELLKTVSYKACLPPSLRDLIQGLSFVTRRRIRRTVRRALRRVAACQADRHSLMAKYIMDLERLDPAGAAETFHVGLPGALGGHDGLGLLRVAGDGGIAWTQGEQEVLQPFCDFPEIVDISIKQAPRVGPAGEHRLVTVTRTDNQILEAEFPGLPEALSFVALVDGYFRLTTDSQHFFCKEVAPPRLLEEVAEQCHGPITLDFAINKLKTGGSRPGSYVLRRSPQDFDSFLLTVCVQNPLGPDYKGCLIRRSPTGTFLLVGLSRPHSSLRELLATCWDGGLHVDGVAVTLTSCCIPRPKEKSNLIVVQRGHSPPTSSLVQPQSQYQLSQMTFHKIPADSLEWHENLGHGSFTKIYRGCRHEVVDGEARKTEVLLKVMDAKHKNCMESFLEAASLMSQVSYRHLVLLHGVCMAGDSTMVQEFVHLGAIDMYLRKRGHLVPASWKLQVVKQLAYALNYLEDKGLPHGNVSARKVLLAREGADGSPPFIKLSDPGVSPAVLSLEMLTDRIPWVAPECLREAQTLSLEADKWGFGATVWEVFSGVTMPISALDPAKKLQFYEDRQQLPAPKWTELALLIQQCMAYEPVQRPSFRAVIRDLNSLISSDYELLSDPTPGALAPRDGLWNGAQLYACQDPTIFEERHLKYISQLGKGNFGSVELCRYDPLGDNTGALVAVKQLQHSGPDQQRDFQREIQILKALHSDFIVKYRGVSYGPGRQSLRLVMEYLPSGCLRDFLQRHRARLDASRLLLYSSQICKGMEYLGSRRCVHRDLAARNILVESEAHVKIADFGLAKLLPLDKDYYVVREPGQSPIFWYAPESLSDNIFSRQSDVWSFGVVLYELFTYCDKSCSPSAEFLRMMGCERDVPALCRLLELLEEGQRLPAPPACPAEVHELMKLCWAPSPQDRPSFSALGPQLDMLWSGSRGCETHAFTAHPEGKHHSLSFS

Pfeiffer [14] = assay: Induction of apoptosis in human Pfeiffer cells assessed as PARP cleavage up to 10 uM after 48 hrs by immunoblot method; type: functional, cell-based
[15] = target: T1, Tyrosine-protein kinase BTK; assay: Inhibition of BTK transphosphorylation at Y551 in anti-IgM stimulated human Ramos cells at 100 to 1000 nM after 4 hrs by chemiluminescence assay; type: cell-based
SKM-1 = assay: Antiproliferative activity against human SKM1 cells after 72 hrs by CellTiter-Glo assay; type: functional; conditions: SKM-1, 72 h
[16] = target: T1, Tyrosine-protein kinase BTK; assay: Inhibition of BTK in anti-IgM stimulated human Ramos cells assessed as decrease in PLCgamma2 phosphorylation at Y1217 after 4 hrs by chemiluminescence assay; type: cell-based
cells [17] = type: functional; conditions: Homo sapiens, CLL cell, 72 h; remark: listed apart in the source
[18] = target: T1, Tyrosine-protein kinase BTK; assay: Irreversible inhibition of recombinant full length His-tagged human BTK expressed in baculovirus expression system using poly (4:1 Glu, Tyr) as substrate assessed as ratio of Kinact to Ki preincubated for 2 to 60 mins followed by substrate addition measured after 1 hr by ADP-glo assay
MOLM-13 [19] = assay: Induction of apoptosis in human MOLM13 cells assessed as caspase-3 cleavage up to 10 uM after 48 hrs by immunoblot method; type: functional, cell-based
MOLM-13 [20] = assay: Cell cycle arrest in human MOLM13 cells assessed as accumulation at G0/G1 phase up to 10 uM after 48 hrs by propidium iodide staining-based flow cytometric method; type: functional
[21] = target: T1, Tyrosine-protein kinase BTK; assay: Inhibition of recombinant full length His-tagged human BTK expressed in baculovirus expression system using poly (4:1 Glu, Tyr) as substrate preincubated for 1 hr followed by substrate addition measured after 1 hr by ADP-glo assay

Compound: C=CC(=O)Nc1cc(-n2c(=O)ccc3cnc4ccc(-n5cccn5)cc4c32)ccc1C
- Activity (MOLM-13 [1]): Active
- Activity [2]: Active
- Activity (Ramos [3]): Active
- Activity (Pfeiffer [4]): Active
- EC50 [5]: < 3 µM
- IC50 [6]: 0.083 µM
- GI50 (cells [7]): 3.7 µM
- GI50 (A549): 3.7 µM
- GI50 (NB-4): 3.7 µM
- GI50 (HEL): 1.8 µM
- EC50 [8]: < 0.1 µM
- EC50 [9]: < 0.1 µM
- Ki [10]: 0.097 µM
- Kinact [10]: 0.07 min⁻¹
- inhibition [11]: inactive
- Activity (Ramos [12]): Active
- IC50 [13]: > 10 µM
- Activity (Pfeiffer [14]): Active
- inhibition [15]: inactive
- GI50 (SKM-1): 2.5 µM
- EC50 [16]: < 1 µM
- GI50 (cells [17]): 2.4 µM
- Ratio [18]: 0.01 µM⁻¹ s⁻¹
- Activity (MOLM-13 [19]): Active
- Activity (MOLM-13 [20]): Active

Compound: CCC(=O)Nc1cc(-n2c(=O)ccc3cnc4ccc(-n5cccn5)cc4c32)ccc1C
- IC50 [21]: 6.87 µM
- GI50 (cells [7]): > 10 µM
- GI50 (A549): > 10 µM
- GI50 (NB-4): > 10 µM
- GI50 (HEL): > 10 µM
- IC50 [13]: > 10 µM
- GI50 (SKM-1): > 10 µM
- GI50 (cells [17]): > 10 µM

From ChEMBL document CHEMBL4130348, “Structure-activity relationship investigation for benzonaphthyridinone derivatives as novel potent Bruton's tyrosine kinase (BTK) irreversible inhibitors” (Eur J Med Chem, 2017)
